Experimental data as given in patent US8461328B2, “Tricyclic heterocyclic compounds, compositions and methods of use thereof” (Genentech, Inc., priority 2010, dated 2013).
Structures can show the parent of a compound that is named as a salt.

Key:
Format in all cases: biochemical
JAK2 = target: T1, JAK2 (Homo sapiens, UniProt O60674); assay: JAK2 inhibition (Table 4); settings: read-out: JAK2 Ki
T1 construct: made in house; host or cells: SF9 insect cells (baculovirus)

JAK1 = target: T2, JAK1 (Homo sapiens, UniProt P23458); assay: JAK1 inhibition (Table 4); settings: read-out: JAK1 Ki
T2 construct: made in house; host or cells: SF9 insect cells (baculovirus)

JAK3 = target: T3, JAK3 (Homo sapiens, UniProt P52333); assay: JAK3 inhibition (Table 4); settings: read-out: JAK3 Ki
T3 construct: made in house; host or cells: SF9 insect cells (baculovirus)

TYK2 = target: T4, TYK2 (Homo sapiens, UniProt P29597); assay: TYK2 inhibition (Table 4)
T4 construct: made in house; host or cells: SF9 insect cells (baculovirus)
T4 sequence (P29597 873-1187): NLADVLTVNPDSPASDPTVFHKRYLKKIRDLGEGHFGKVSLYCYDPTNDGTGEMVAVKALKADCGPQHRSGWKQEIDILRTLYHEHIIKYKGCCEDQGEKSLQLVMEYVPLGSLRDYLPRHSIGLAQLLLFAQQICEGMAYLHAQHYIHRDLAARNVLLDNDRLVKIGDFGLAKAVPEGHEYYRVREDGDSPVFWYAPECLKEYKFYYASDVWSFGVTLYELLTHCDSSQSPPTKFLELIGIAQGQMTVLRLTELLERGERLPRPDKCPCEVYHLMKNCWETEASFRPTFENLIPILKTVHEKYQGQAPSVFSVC

T3 sequence (P52333 783-1124): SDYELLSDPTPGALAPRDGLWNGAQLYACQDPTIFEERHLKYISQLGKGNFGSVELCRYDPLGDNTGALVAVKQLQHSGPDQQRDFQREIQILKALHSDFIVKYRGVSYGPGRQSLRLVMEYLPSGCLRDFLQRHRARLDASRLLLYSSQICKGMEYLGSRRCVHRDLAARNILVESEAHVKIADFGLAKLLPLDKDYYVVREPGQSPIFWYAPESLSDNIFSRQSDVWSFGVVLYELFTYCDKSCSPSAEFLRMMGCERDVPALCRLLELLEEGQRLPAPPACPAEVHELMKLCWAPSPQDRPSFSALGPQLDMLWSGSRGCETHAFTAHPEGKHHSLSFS
T1 sequence (O60674 812-1132): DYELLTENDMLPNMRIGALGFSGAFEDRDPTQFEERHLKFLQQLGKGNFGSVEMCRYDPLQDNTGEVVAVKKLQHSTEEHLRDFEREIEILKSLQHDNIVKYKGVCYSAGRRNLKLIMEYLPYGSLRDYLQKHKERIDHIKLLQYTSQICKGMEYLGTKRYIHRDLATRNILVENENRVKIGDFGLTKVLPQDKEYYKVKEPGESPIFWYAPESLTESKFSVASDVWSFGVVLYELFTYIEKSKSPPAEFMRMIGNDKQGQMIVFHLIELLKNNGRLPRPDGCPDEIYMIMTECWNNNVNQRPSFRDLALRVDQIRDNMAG
T2 sequence (P23458 852-1154): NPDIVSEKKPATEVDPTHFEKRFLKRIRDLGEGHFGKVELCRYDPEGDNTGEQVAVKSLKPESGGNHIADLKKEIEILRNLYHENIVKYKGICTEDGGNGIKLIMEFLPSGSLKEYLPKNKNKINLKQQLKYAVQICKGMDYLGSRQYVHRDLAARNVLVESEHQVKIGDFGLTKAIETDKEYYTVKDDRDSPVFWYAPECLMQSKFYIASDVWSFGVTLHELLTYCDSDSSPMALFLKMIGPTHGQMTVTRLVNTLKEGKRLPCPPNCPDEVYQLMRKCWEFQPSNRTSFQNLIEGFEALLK

Row | Compound | Ki (JAK2) | Ki (JAK1) | Ki (JAK3) | Ki (TYK2)
1 | CC1CN(Cc2ccccc2)CCC1n1cnc2cnc3[nH]ccc3c21 (racemic) [Example 150, Racemic trans 1-(1-Benzyl-3-methyl-piperidin-4-yl)-1,6-dihydro-1,2,3,5,6-tetraaza-as-indacene dihydrochloride] | 11.9 nM | 4.17 nM | 17.7 nM | 292 nM
2 | O=C1CC2CCC(n3cnc4cnc5[nH]ccc5c43)CC2N1 (racemic) [Example 111, 6-(6H-1,2,3,5,6-Tetraaza-as-indacen-1-yl)-octahydro-indol-2-one] | 10.4 nM | 4.87 nM | 26.5 nM | 21 nM
3 | Cc1cc(CN2CCC(n3c(C(C)O)nc4cnc5[nH]ccc5c43)C(F)C2)on1 (stereo not shown) [Example 895, 1-{1-[3-Fluoro-1-(3-methyl-isoxazol-5-ylmethyl)-piperidin-4-yl]-1,6-dihydro-1,3,5,6-tetraaza-as-indacen-2-yl}-ethanol] | 19.1 nM | 1.27 nM | 3.34 nM | 99.1 nM
4 | Cc1nc2cnc3[nH]ccc3c2n1[C@H]1CC[C@@H](NC(=O)CC(F)(F)F)C1 [Example 731, 3,3,3-Trifluoro-N-[(1R,3S)-3-(2-methyl-6H-1,3,5,6-tetraaza-as-indacen-1-yl)-cyclopentyl]-propionamide] | 5.54 nM | 0.58 nM | 9.13 nM | 12.4 nM
5 | OCc1nc2cnc3[nH]ccc3c2n1C1CCN(Cc2ccccc2)CC1(F)F (racemic) [Example 947, [1-(1-Benzyl-3,3-difluoro-piperidin-4-yl)-1,6-dihydro-1,3,5,6-tetraaza-as-indacen-2-yl]-methanol] | 1.29 nM | 0.42 nM | 2.14 nM | 5.63 nM
6 | Cc1nc2cnc3[nH]ccc3c2n1C1CC2CCC1O2 (stereo not drawn) [Example 845, exo-2-Methyl-1-(7-oxa-bicyclo[2.2.1]hept-2-yl)-1,6-dihydro-1,3,5,6-tetraaza-as-indacene] | 13.9 nM | 4.17 nM | 52.3 nM | 28.8 nM
7 | COCC(=O)NCCc1nc2cnc3[nH]ccc3c2n1C1CCCOC1 (racemic) [Example 860, 2-Methoxy-N-{2-[1-(tetrahydro-pyran-3-yl)-1,6-dihydro-1,3,5,6-tetraaza-as-indacen-2-yl]-ethyl}-acetamide] | 296 nM | 20.2 nM | 561 nM | 806 nM
8 | C[C@@H](O)c1nc2cnc3[nH]cc(Br)c3c2n1C1CCC(CC#N)CC1 (stereo partly drawn) [Example 1010, {4-[8-Bromo-2-((R)-1-hydroxy-ethyl)-6H-1,3,5,6-tetraaza-as-indacen-1-yl]-cyclohexyl}-acetonitrile] | 1.66 nM | 1.12 nM | 0.33 nM | 2.2 nM
9 | CC(O)c1nc2cnc3[nH]ccc3c2n1C1CCN(Cc2cccnc2)CC1 (racemic) [Example 292, 1-[1-(1-Pyridin-3-ylmethyl-piperidin-4-yl)-1,6-dihydro-1,3,5,6-tetraaza-as-indacen-2-yl]-ethanol] | 26.5 nM | 2.92 nM | 7.9 nM | 218 nM
10 | O=C(CS(=O)(=O)c1ccccc1)N1CCC[C@@H](n2cnc3cnc4[nH]ccc4c32)C1 [Example 76, 2-Benzenesulfonyl-1-[(R)-3-(6H-1,3,5,6-tetraaza-as-indacen-1-yl)-piperidin-1-yl]ethanone] | 73 nM | 51.7 nM | 232 nM | 531 nM
11 | O=C(Cc1nc2cnc3[nH]ccc3c2n1C1CCNCC1)N1CC(F)(F)C1 [Example 269, 1-(3,3-Difluoro-azetidin-1-yl)-2-(1-piperidin-4-yl-1,6-dihydro-1,3,5,6-tetraaza-as-indacen-2-yl)-ethanone] | 1310 nM | 84.4 nM | 245 nM | 1700 nM
12 | CCCS(=O)(=O)N1CCC(n2c(CC(N)=O)nc3cnc4[nH]ccc4c32)CC1 [Example 117, 2-{1-[1-(Propane-1-sulfonyl)-piperidin-4-yl]-1,6-dihydro-1,2,3,5,6-tetraaza-as-indacen-2-yl}-acetamide] | 781 nM | 131 nM | 746 nM | 1530 nM
13 | NC(=O)CN1CCC[C@@H](n2cnc3cnc4[nH]ccc4c32)C1 [Example 11, 2-[(R)-3-(6H-1,2,3,5,6-Tetraaza-as-indacen-1-yl)-piperidin-1-yl]acetamide] | 37.4 nM | 17.3 nM | 94.5 nM | 176 nM
14 | CC1CN(Cc2cncnc2)CCC1n1cnc2cnc3[nH]ccc3c21 (racemic) [Example 342, 1-(3-Methyl-1-pyrimidin-5-ylmethyl-piperidin-4-yl)-1,6-dihydro-1,3,5,6-tetraaza-as-indacene] | 2.36 nM | 2 nM | 23.4 nM | 24.9 nM
15 | CC(C)Cc1nc2cnc3[nH]ccc3c2n1C1CCN(Cc2ccccc2)CC1 [Example 224, 1-(1-Benzyl-piperidin-4-yl)-2-isobutyl-1,6-dihydro-1,3,5,6-tetraaza-as-indacene] | 59.2 nM | 14.2 nM | 20.6 nM | 1980 nM
16 | Cc1nc2cnc3[nH]ccc3c2n1C1CCS(=O)(=O)CC1 [Example 210, 1-(1,1-Dioxo-hexahydro-1-thiopyran-4-yl)-2-methyl-1,6-dihydro-1,2,3,5,6-tetraaza-as-indacene] | 642 nM | 147 nM | 646 nM | 514 nM
17 | N#CCCN1CCCCC(n2cnc3cnc4[nH]ccc4c32)C1 (racemic) [Example 989, 3-[3-(6H-1,3,5,6-Tetraaza-as-indacen-1-yl)-azepan-1-yl]-propionitrile] | 14.6 nM | 10.9 nM | 39.4 nM | 42 nM
18 | Cc1nc2cnc3[nH]ccc3c2n1[C@H]1CCC[C@@](C)(O)C1 [Example 888, (1R,3S)-1-Methyl-3-(2-methyl-6H-1,3,5,6-tetraaza-as-indacen-1-yl)-cyclohexanol] | 17.7 nM | 12.8 nM | 14 nM | 40.9 nM
19 | Cc1nc2cnc3[nH]ccc3c2n1[C@@H]1CCC[C@](C)(O)C1 [Example 890, (1S,3R)-1-Methyl-3-(2-methyl-6H-1,3,5,6-tetraaza-as-indacen-1-yl)-cyclohexanol] | 38.1 nM | 37.6 nM | 36.9 nM | 133 nM
20 | NC(=O)Cc1nc2cnc3[nH]ccc3c2n1C1CCN(Cc2ccccc2)CC1 [Example 245, 2-[1-(1-Benzyl-piperidin-4-yl)-1,6-dihydro-1,3,5,6-tetraaza-as-indacen-2-yl]-acetamide] | 43.1 nM | 9.84 nM | 19.4 nM | 468 nM
21 | N#CCCN1CCC(n2c(CC(=O)N3CCOCC3)nc3cnc4[nH]ccc4c32)CC1 [Example 160, 3-{4-[2-(2-Morpholin-4-yl-2-oxo-ethyl)-6H-1,2,3,5,6-tetraaza-as-indacen-1-yl]-piperidin-1-yl}-propionitrile] | 70.6 nM | 8.43 nM | 10.7 nM | 100 nM
22 | N#CCCN1CCC(n2c(CCC3CC3)nc3cnc4[nH]ccc4c32)CC1 [Example 408, 3-{4-[2-(2-Cyclopropyl-ethyl)-6H-1,3,5,6-tetraaza-as-indacen-1-yl]-piperidin-1-yl}-propionitrile] | 43.5 nM | 15.8 nM | 52.4 nM | 255 nM
23 | C[C@H](O)c1nc2cnc3[nH]ccc3c2n1C1CCOCC1 [Example 543, (S)-1-[1-(Tetrahydro-pyran-4-yl)-1,6-dihydro-1,3,5,6-tetraaza-as-indacen-2-yl]-ethanol] | 384 nM | 82.6 nM | 179 nM | 274 nM
24 | CC(=O)NC1CCCC(n2cnc3cnc4[nH]ccc4c32)C1 (single isomer, unassigned) [Example 479, N-[3-(6H-1,3,5,6-Tetraaza-as-indacen-1-yl)-cyclohexyl]-acetamide] | 123 nM | 130 nM | 121 nM | 420 nM
25 | CC1(C(=O)N2CCC[C@@H](n3cnc4cnc5[nH]ccc5c43)C2)CC1 [Example 227, (1-Methyl-cyclopropyl)-[(R)-3-(6H-1,3,5,6-tetraaza-as-indacen-1-yl)-piperidin-1-yl]-methanone] | 3.16 nM | 6.41 nM | 83 nM | 12.5 nM
26 | CC(C)C(=O)NCCc1nc2cnc3[nH]ccc3c2n1C1CCN(CCC#N)CC1 [Example 378, N-(2-{1-[1-(2-Cyano-ethyl)-piperidin-4-yl]-1,6-dihydro-1,3,5,6-tetraaza-as-indacen-2-yl}-ethyl)-isobutyramide] | 48.4 nM | 5.03 nM | 61.3 nM | 226 nM
27 | CCN1CCC(n2c(CCNS(C)(=O)=O)nc3cnc4[nH]ccc4c32)C(F)(F)C1 (single isomer, unassigned) [Example 805, N-{2-[1-(1-Ethyl-3,3-difluoro-piperidin-4-yl)-1,6-dihydro-1,3,5,6-tetraaza-as-indacen-2-yl]-ethyl}-methanesulfonamide] | 36 nM | 2.8 nM | 9.01 nM | 158 nM
28 | CC(O)c1nc2cnc3[nH]ccc3c2n1C1CCCN(CCF)C1 [Example 664, (R)-1-{1-[(R)-1-(2-Fluoro-ethyl)-piperidin-3-yl]-1,6-dihydro-1,2,3,5,6-tetraaza-as-indacen-2-yl}-ethanol] | 99 nM | 63.8 nM | 112 nM | 58.5 nM
